Results reported in patent US9458217B2, “Methods of managing graft versus host disease” (EMORY UNIVERSITY, priority 2013, dated 2016).
“Also recorded” adds a separate entry of the source. Where no end group is shown, it is not given here.

Assays:
CD11c+ cells = assay: Cell viability / direct cytotoxicity on drug exposure in vitro; conditions: at the doses that inhibit trogocytosis (FIG. 3)
cross-dressed CD11c+ APC = assay: Drug inhibition of trogocytosis in MLR (frequency of cross-dressed CD11c+ APC by flow cytometry); format: cell-based, mice
Experimental: The frequency of cross-dressed CD11c+ APC on day 6 of MLR was assessed by flow cytometry.
Whether drugs can inhibit cross-dressed APCs from facilitating antigen presentation to donor T cells and prevent GVHD following allo-HSCT was tested. Cross-dressed donor CD11c+ APCs were generated in vivo following allo-HSCT (FIG. 1).

T cells = assay: T cell proliferation in primary MLR with drug-treated bone marrow; format: cell-based, mice

Molecule: KPRRPYTDNYTRLRKQMAVKKYLNSILN-NH2 [VIPHyb]
- cell viability / direct cytotoxic effects (CD11c+ cells): without direct cytotoxic effects
- cell viability / direct cytotoxic effects (CD11c+ cells; listed as VIP antagonist): preserving cell viability

Molecule: CC(=O)O[C@H]1C(=O)[C@@]2(C)[C@H]([C@H](OC(=O)c3ccccc3)[C@]3(O)C[C@H](OC(=O)[C@H](O)[C@@H](NC(=O)c4ccccc4)c4ccccc4)C(C)=C1C3(C)C)[C@]1(OC(C)=O)CO[C@@H]1C[C@@H]2O [paclitaxel]
- exchange of plasma membrane fragments (trogocytosis; frequency of cross-dressed CD11c+ APC) (cross-dressed CD11c+ APC; in vitro generated cross-dressed CD11c+ cells, day 6 of MLR, flow cytometry (FIG. 3)): inhibited
- semi-direct presentation of allo-antigen to T cells (cross-dressed CD11c+ APC; summary statement of the data): reduce semi-direct presentation
- T cell proliferation in primary MLR (T cells; bone marrow treated with 0.05 uM, compared to non-drug treated bone marrow): significantly decreased
- allo-reactivity (T cells; summary statement of the data): reduce allo-reactivity
- cell viability / direct cytotoxic effects (CD11c+ cells): without direct cytotoxic effects; also recorded: preserving cell viability
